Here are results for one compound from US20080033169A1, “Crystalline Form Of Cefdinir Ammonium Salt As An Intermediate For The Preparation Of Pure Cefdinir” (priority 2004, published 2008).

Series [1] can be described thus: stability. The series is classed as physicochemical. The settings on record: crystalline salt.
Series [2] in a line: water solubility. The series is classed as physicochemical. The settings on record: in water.

Turning to `C=CC1=C(C(=O)O)N2C(=O)[C@@H](NC(=O)/C(=N\O)c3csc(N)n3)[C@H]2SC1.N` [Crystalline Cefdinir ammonium salt, Cefdinir ammonium salt], the stability result in series [1] is listed as “good”. Besides, the water solubility entry in series [2] was “complete”.
